Assay results as given in US11738082B2, “High concentration protein formulations with reduced viscosity” (Bhami's Research Laboratory, Pvt. Ltd., priority 2017, dated 2023).
Structures can show the parent of a compound that is named as a salt. Blank lines part the entries; values can stand above or below the compound they belong to. Residues, ends and D or L forms follow the SMILES beside them.

Test system: Human Gamma Globulin (HGG), GLOBUCEL®
Test: Viscosity of aqueous solutions of Human Gamma Globulin (Cambridge VISCOlab5000 or DV2T cone and plate viscometer)
[1] = HGG […], excipient 5%, 25 mM citrate buffer pH 6.0
[2] = HGG 220 mg/mL, excipient 10 mg/mL, citrate buffer pH 6.0, 25° C.
[3] = HGG 220 mg/mL, excipient 10 mg/mL, histidine buffer pH 6.0, 25° C.
[4] = HGG 220 mg/mL, excipient 10 mg/mL, phosphate buffer pH 6.0, 25° C.

Method: Commercially obtained human gamma globulin (HGG), GLOBUCEL® (50 mg/mL) containing pharmaceutical excipients (Maltose) was dialyzed against water for 24 hr at 4° C. with three changes. To the aqueous solution of HGG, either histidine or phosphate or citrate buffer was added from the stock concentration of 1000 mM for histidine buffer or 1000 mM for citrate buffer or 1000 mM for phosphate buffer, pH 6.0 to get a final concentration of 25 mM each. The HGG solutions in various buffers were concentrated to a final volume of less than 150 μL using Vivaspin centrifugal concentrators (Sartorius). The collected protein sample was stored at 4° C. […] The protein concentrations were experimentally determined using the extinction coefficient of 1.4
[formula] at 280 nm. The viscosities of the solution were measured either using a Cambridge Viscometer, VISCOlab5000 using 70 μL of sample at 25° C. or using a DV2T cone and plate viscometer using 1.5 mL of sample at 25° C. at extrapolated zero shear rate.
Commercially obtained human gamma globulin (HGG), GLOBUCEL® (50 mg/mL) containing pharmaceutical excipients (Maltose) was dialyzed against water for 24 hr at 4° C. with three changes. To the aqueous solution of HGG, either citrate-phosphate buffer pH 5.0 or citrate-phosphate buffer pH 6.0 or citrate-phosphate buffer pH 7.0 was added from the stock concentration of 1000 mM for citrate buffer at pH 5.0 or pH 6.0 or pH 7.0 to get a final concentration of 25 mM each. The HGG solutions in various pH buffers were concentrated to a final volume of less than 150 μL using Vivaspin centrifugal concentrators (Sartorius). The collected protein sample was stored at 4° C. […] The protein concentrations were experimentally determined using the extinction coefficient of 1.4
Commercially obtained human gamma globulin (HGG), GLOBUCEL® (50 mg/mL) containing pharmaceutical excipients (Maltose) was dialyzed against water for 24 hr at 4° C. with three changes. To the aqueous solution of HGG, phosphate/citrate/histidine Buffer was added from the stock concentration of 1000 mM phosphate/citrate/histidine buffer, pH 6.0 to get a final concentration of 25 mM. To the buffered HGG different amino acid or its derivative was added individually and mixed until complete dissolution. The excipient containing HGG was concentrated to a final volume of less than 150 μL using Vivaspin centrifugal concentrators (Sartorius). The collected protein sample was stored at 4° C. […] The protein concentrations were experimentally determined using the extinction coefficient of 1.4
Commercially obtained human gamma globulin (HGG), GLOBUCEL® (50 mg/mL) containing pharmaceutical excipients (Maltose) was dialyzed against water for 24 hr at 4° C. with three changes. To the aqueous solution of HGG, phosphate/citrate/histidine Buffer was added from the stock concentration of 1000 mM phosphate/citrate/histidine buffer, pH 6.0 to get a final concentration of 25 mM. To the buffered HGG, different nucleosides or nucleotides or its derivative was added individually and mixed until complete dissolution. The excipient containing HGG was concentrated to a final volume of less than 150 μL using Vivaspin centrifugal concentrators (Sartorius). The collected protein sample was stored at 4° C.

Compound: Nc1ncccn1 [2-Aminopyrimidine]
- Viscosity (cP) @ 25° C. (HGG 120 mg/mL, excipient 10 mg/mL (105 mM), 25 mM phosphate buffer pH 6.0): 87 cP

Compound: CC(=O)Oc1ccccc1C(=O)O [Acetyl salicylic acid, reference compound]
- Viscosity (cP) @ 25° C. (HGG 283 mg/mL, excipient 2.5 mg/mL (14 mM), 25 mM histidine buffer pH 6.0): 43 cP

Compound: C[C@H](N)C(=O)O [Alanine]
- Viscosity (cP) @ 25° C. (HGG 222 mg/mL, excipient 10 mg/mL (112 mM), 25 mM phosphate buffer pH 6.0): 112 cP

Compound: Cl.N [Ammonium chloride]
- Viscosity (cP) @ 25° C. (HGG 182 mg/mL, excipient 5.35 mg/mL (100 mM), 25 mM phosphate buffer pH 6.0): 53 cP
- Viscosity (cP) @ 25° C. (HGG 205 mg/mL, excipient 40 mg/mL (747 mM), 25 mM phosphate buffer pH 6.0): 21 cP

Compound: O=C[C@@H](O)[C@H](O)[C@H](O)CO [Arabinose]
- Viscosity (cP) @ 25° C. (HGG 186 mg/mL, excipient 10 mg/mL (67 mM), 25 mM citrate buffer pH 6.0): 65 cP

Compound: N=C(N)NCCC[C@H](N)C(=O)O [Arginine]
- Viscosity (cP) @ 25° C. (HGG 205 mg/mL, excipient 10 mg/mL (58 mM), 25 mM phosphate buffer pH 6.0): 85 cP
- Viscosity (cP) @ 25° C. (HGG 220 mg/mL, excipient 10 mg/mL (58 mM), 25 mM phosphate buffer pH 6.0): 197 cP
- Viscosity (cP) @ 25° C. (HGG 247 mg/mL, excipient 10 mg/mL (58 mM), 25 mM citrate buffer pH 6.0): 87 cP

Compound: COC(=O)[C@H](Cc1ccccc1)NC(=O)[C@@H](N)CC(=O)O [Aspartame] (H-Asp-Phe-OMe)
- Viscosity (cP) @ 25° C. (HGG 140 mg/mL, excipient 10 mg/mL (34 mM), 25 mM citrate buffer pH 6.0): 51 cP
- Viscosity (cP) @ 25° C. (HGG 218 mg/mL, excipient 10 mg/mL (34 mM), 25 mM phosphate buffer pH 6.0): 143 cP

Compound: Nc1ccn([C@@H]2O[C@H](CO)[C@@H](O)[C@H]2O)c(=O)n1 [Cytidine]
- Viscosity (cP) @ 25° C. (HGG 218 mg/mL, excipient 10 mg/mL (41 mM), 25 mM phosphate buffer pH 6.0): 203 cP

Compound: OC[C@@H](O)[C@@H](O)[C@H](O)[C@@H](O)CO [D-sorbitol]
- Viscosity (cP) @ 25° C. (HGG 182 mg/mL, excipient 10 mg/mL (56 mM), 25 mM citrate buffer pH 6.0): 45 cP
- Viscosity (cP) @ 25° C. (HGG 240 mg/mL, excipient 10 mg/mL (56 mM), 25 mM phosphate buffer pH 6.0): 176 cP

Compound: C[S+](C)[O-] [DMSO]
- Viscosity (cP) @ 25° C. (HGG 204 mg/mL, excipient 5%, 25 mM phosphate buffer pH 6.0): 121 cP
- Viscosity (cP) @ 25° C. [1]: 28 cP

Compound: CCO [Ethanol]
- Viscosity (cP) @ 25° C. (HGG 182 mg/mL, excipient 5%, 25 mM phosphate buffer pH 6.0): 53 cP
- Viscosity (cP) @ 25° C. [1]: 5 cP

Compound: O=C(CO)[C@@H](O)[C@H](O)[C@H](O)CO [Fructose]
- Viscosity (cP) @ 25° C. (HGG […], excipient 10 mg/mL (56 mM), 25 mM citrate buffer pH 6.0): 69 cP

Compound: NCC(=O)O [Glycine]
- Viscosity (cP) @ 25° C. (HGG 206 mg/mL, excipient 10 mg/mL ([…]), 25 mM phosphate buffer pH 6.0): 63 cP
- Viscosity (cP) @ 25° C. (HGG 208 mg/mL, excipient 10 mg/mL ([…]), 25 mM citrate buffer pH 6.0): 73 cP
- Viscosity (cP) @ 25° C. (HGG 228 mg/mL, excipient 10 mg/mL ([…]), 25 mM phosphate buffer pH 6.0): 186 cP

Compound: N=C(N)NCCCC[C@H](N)C(=O)O [Homoarginine]
- Viscosity (cP) @ 25° C. (HGG 188 mg/mL, excipient 10 mg/mL (45 mM), 25 mM phosphate buffer pH 6.0): 28 cP

Compound: NCCCC[C@H](N)C(=O)O [Lysine]
- Viscosity (cP) @ 25° C. (HGG 267 mg/mL, excipient 10 mg/mL (55 mM), 25 mM phosphate buffer pH 6.0): 199 cP

Compound: COC(=O)c1cccnc1 [Methylnicotinate]
- Viscosity (cP) @ 25° C. (HGG 216 mg/mL, excipient 10 mg/mL (73 mM), 25 mM phosphate buffer pH 6.0): 84 cP

Compound: O=C(O)c1cccnc1 [Nicotinic acid (acid form)]
- Viscosity, cP [2]: 20 cP
- Viscosity, cP [3]: 18 cP
- Viscosity, cP [4]: 20 cP
- Viscosity (cP) @ 25° C. (HGG 231 mg/mL, excipient 10 mg/mL (81 mM), 25 mM histidine buffer pH 6.0): 23 cP
- Viscosity (cP) @ 25° C. (HGG 246 mg/mL, excipient 10 mg/mL (81 mM), 25 mM citrate buffer pH 6.0): 48 cP
- Viscosity (cP) @ 25° C. (HGG 250 mg/mL, excipient 10 mg/mL (81 mM), 25 mM phosphate buffer pH 6.0): 30 cP
- Viscosity, cP (HGG 260 mg/mL, nicotinic acid (acid form) 1 mg/mL, 25 mM histidine buffer pH 6.0, 25° C.): 85 cP
- Viscosity, cP (HGG 260 mg/mL, nicotinic acid (acid form) 5 mg/mL, 25 mM histidine buffer pH 6.0, 25° C.): 68 cP
- Viscosity, cP (HGG 260 mg/mL, nicotinic acid (acid form) 10 mg/mL, 25 mM histidine buffer pH 6.0, 25° C.): 52 cP
- Viscosity, cP (HGG 260 mg/mL, nicotinic acid (acid form) 15 mg/mL, 25 mM histidine buffer pH 6.0, 25° C.): 41 cP
- Viscosity, cP (HGG 274 mg/mL, in the presence of nicotinic acid (acid form), 25 mM histidine buffer pH 6.0, 20° C.): 63 cP
- Viscosity, cP (HGG 274 mg/mL, in the presence of nicotinic acid (acid form), 25 mM histidine buffer pH 6.0, 25° C.): 41 cP
- Viscosity, cP (HGG 274 mg/mL, in the presence of nicotinic acid (acid form), 25 mM histidine buffer pH 6.0, 30° C.): 35 cP
- Viscosity (cP) @ 25° C. (HGG 277 mg/mL, excipient 10 mg/mL (81 mM), 25 mM citrate buffer pH 6.0): 123 cP
- Viscosity (cP) @ 25° C. (HGG 342 mg/mL, excipient 10 mg/mL (81 mM), 25 mM histidine buffer pH 6.0): 178 cP

Compound: O=C([O-])c1cccnc1.[Na+] [Nicotinic acid Sodium Salt]
- Viscosity (cP) @ 25° C. (HGG 202 mg/mL, excipient 10 mg/mL (69 mM), 25 mM phosphate buffer pH 6.0): 29 cP
- Viscosity (cP) @ 25° C. (HGG 203 mg/mL, excipient 10 mg/mL (69 mM), 25 mM histidine buffer pH 6.0): 21 cP
- Viscosity, cP [3]: 81 cP
- Viscosity, cP [4]: 95 cP
- Viscosity, cP (HGG 225 mg/mL (footnote), excipient 10 mg/mL, citrate buffer pH 6.0, 25° C.): 71^$ cP
- Viscosity (cP) @ 25° C. (HGG 225 mg/mL, excipient 10 mg/mL (69 mM), 25 mM phosphate buffer pH 6.0): 95 cP
- Viscosity (cP) @ 25° C. (HGG 235 mg/mL, excipient 10 mg/mL (69 mM), 25 mM histidine buffer pH 6.0): 140 cP
- Viscosity (cP) @ 25° C. (HGG 236 mg/mL, excipient […] (81 mM), 25 mM histidine buffer pH 6.0): 83 cP
- Viscosity (cP) @ 25° C. (HGG […], excipient 10 mg/mL (69 mM), 25 mM citrate buffer pH 6.0): 71 cP

Compound: CC(=O)[O-].[K+] [Potassium acetate]
- Viscosity (cP) @ 25° C. (HGG 228 mg/mL, excipient 40 mg/mL (408 mM), 25 mM phosphate buffer pH 6.0): 172 cP

Compound: CC(=O)[O-].[Na+] [Sodium Acetate]
- Viscosity (cP) @ 25° C. (HGG 174 mg/mL, excipient […] (100 mM), 25 mM phosphate buffer pH 6.0): 19 cP

Further lines, results first:

- Viscosity (cP) @ 25° C. (HGG 180 mg/mL, excipient 10 mg/mL (65 mM), 25 mM phosphate buffer pH 6.0): 31 cP
Compound: N[C@@H](Cc1c[nH]cn1)C(=O)O [Histidine]

- Viscosity (cP) @ 25° C. (HGG 214 mg/mL, excipient 10 mg/mL (57 mM), 25 mM phosphate buffer pH 6.0): 59 cP
Compound: O=C1O[C@H]([C@@H](O)CO)C(O)=C1O [L-Ascorbic acid]

- Viscosity (cP) @ 25° C. (HGG […], excipient 10 mg/mL (55 mM), 25 mM citrate buffer pH 6.0): 65 cP
Compound: OC[C@@H](O)[C@@H](O)[C@H](O)[C@H](O)CO [Mannitol]

- Viscosity (cP) @ 25° C. (HGG 228 mg/mL, excipient 10 mg/mL (67 mM), 25 mM phosphate buffer pH 6.0): 170 cP
Compound: CSCC[C@H](N)C(=O)O [Methionine]

- Viscosity (cP) @ 25° C. (HGG 105 mg/mL, excipient 10 mg/mL (82 mM), 25 mM histidine buffer pH 6.0): 26 cP
- Viscosity (cP) @ 25° C. (HGG 191 mg/mL, excipient 10 mg/mL (82 mM), 25 mM phosphate buffer pH 6.0): 21 cP
- Viscosity (cP) @ 25° C. (HGG 219 mg/mL, excipient 10 mg/mL (82 mM), 25 mM citrate buffer pH 6.0): 72 cP
- Viscosity, cP [2]: 72 cP
- Viscosity, cP [3]: 43 cP
- Viscosity, cP [4]: 49 cP
- Viscosity (cP) @ 25° C. (HGG 224 mg/mL, excipient 10 mg/mL (82 mM), 25 mM histidine buffer pH 6.0): 43 cP
- Viscosity (cP) @ 25° C. (HGG 250 mg/mL, excipient 10 mg/mL (82 mM), 25 mM phosphate buffer pH 6.0): 76 cP
Compound: NC(=O)c1cccnc1 [Nicotinamide]

- Viscosity (cP) @ 25° C. (HGG […], excipient 10 mg/mL (87 mM), 25 mM citrate buffer pH 6.0): 55 cP
- Viscosity (cP) @ 25° C. (HGG […], excipient 10 mg/mL (87 mM), 25 mM phosphate buffer pH 6.0): 68 cP
Compound: O=C(O)[C@@H]1CCCN1 [Proline]

- Viscosity (cP) @ 25° C. (HGG 213 mg/mL, excipient 10 mg/mL (91 mM), 25 mM phosphate buffer pH 6.0): 171 cP
Compound: CC(=O)C(=O)[O-].[Na+] [Pyruvate sodium salt]

- Viscosity (cP) @ 25° C. (HGG 238 mg/mL, excipient 10 mg/mL (95 mM), 25 mM phosphate buffer pH 6.0): 135 cP
Compound: N[C@@H](CO)C(=O)O [Serine]

- Viscosity (cP) @ 25° C. (HGG 192 mg/mL, excipient 20 mg/mL (58 mM), 25 mM citrate buffer pH 6.0): 76 cP
- Viscosity (cP) @ 25° C. (HGG 204 mg/mL, excipient 20 mg/mL (58 mM), 25 mM phosphate buffer pH 6.0): 190 cP
Compound: OC[C@H]1O[C@@](CO)(O[C@H]2O[C@H](CO)[C@@H](O)[C@H](O)[C@H]2O)[C@@H](O)[C@@H]1O [Sucrose]

- Viscosity (cP) @ 25° C. (HGG 179 mg/mL, excipient 10 mg/mL (30 mM), 25 mM phosphate buffer pH 6.0): 24 cP
- Viscosity (cP) @ 25° C. (HGG 200 mg/mL, excipient 10 mg/mL (30 mM), 25 mM histidine buffer pH 6.0): 29 cP
- Viscosity (cP) @ 25° C. (HGG 200 mg/mL, excipient 27.3 mg/mL (81 mM), 25 mM phosphate buffer pH 6.0): 34 cP
- Viscosity, cP [3]: 95 cP
- Viscosity, cP [4]: 65 cP
- Viscosity (cP) @ 25° C. (HGG 246 mg/mL, excipient 27.3 mg/mL (81 mM), 25 mM phosphate buffer pH 6.0): 91 cP
- Viscosity (cP) @ 25° C. (HGG 248 mg/mL, excipient 10 mg/mL (30 mM), 25 mM phosphate buffer pH 6.0): 92 cP
- Viscosity (cP) @ 25° C. (HGG 294 mg/mL, excipient 10 mg/mL (30 mM), 25 mM citrate buffer pH 6.0): 185 cP
Compound: Cc1ncc(C[n+]2csc(CCO)c2C)c(N)n1 [Thiamine-HCl]

- Viscosity (cP) @ 25° C. (HGG 161 mg/mL, excipient 10 mg/mL (41 mM), 25 mM phosphate buffer pH 6.0): 60 cP
Compound: Cc1cn([C@H]2C[C@H](O)[C@@H](CO)O2)c(=O)[nH]c1=O [Thymidine]
